B1: TRAIL: Super Killer TRAIL™ purchased from Alexis Biochemicals; death receptor ligand (protein, UniProt P50591 39-281, looked up)
extracellular domain: TNELKQMQDKYSKSGIACFLKEDDSYWDPNDEESMNSPCWQVKWQLRQLVRKMILRTSEETISTVQEKQQNISPLVRERGPQRVAAHITGTRGRSNTLSSPNSKNEKALGRKINSWESSRSGHSFLSNLHLRNGELVIHEKGFYYIYSQTYFRFQEEIKENTKNDKQMVQYIYKYTSYPDPILLMKSARNSCWSKDAEYGLYSIYQGGIFELKENDRIFVSVTNEHLIDMDHEASFFGAFLVG
modifications: extracellular domain Super Killer TRAIL engineered soluble form
notes: Super Killer TRAIL™ purchased from Alexis Biochemicals; death receptor ligand

Tests used:
[1] = test system: 2LMP and SUM159 ALDH+ tumorsphere cells; test: Secondary tumorsphere formation; type: cell-based, human; conditions: 2LMP and SUM159 sphere cells; TRAIL and 2E12 at concentrations equimolar to TRA-8
Method: Bars are normalized relative to untreated control and represent quadruplicate runs. Error bars denote standard deviation (SD).
(§1) • Drugs and Antibodies. Adriamycin and Taxol were purchased from Sigma Aldrich Chemical Co. (St. Louis, Mo.) and prepared as 10 mM stock solutions in distilled H2O or DMSO, respectively. Purified TRA-8 (IgG1) mAb was prepared as described previously (Ichikawa et al., Nat. Med. 7:954-60 (2001) and WO01/83560). Isotype-specific IgG1 control antibody was obtained from Southern Biotechnology Associates (Birmingham, Ala.). Anti-DR4 mAb 2E12 (IgG1, k) was described previously (WO03/37913). Super Killer TRAIL™ was purchased from Alexis Biochemicals (Plymouth Meeting, Pa.). Conjugated antibodies APC mouse anti-human CD44, PE-Cy7 rat anti-mouse CD44, and corresponding isotype control antibodies were purchased from BD Pharmingen (San Jose, Calif.). ALDEFLUOR® kit including diethylaminobenzaldehyde (DEAB) negative control was obtained from StemCell Technologies (Durham, N.C.). Cleaved caspase-8 rabbit mAb and cleaved caspase-3 rabbit mAb were purchased from Cell Signaling (Billerica, Mass.). Secondary antibodies, Alexa tluor 405 goat anti-rabbit IgG and Alexa fluor 647 goat anti-mouse IgG1 were purchased from Invitrogen (Carlsbad, Calif.). • Cells and Cell Culture. The 2LMP subclone of the human breast cancer cell line MDA-MB-231 was maintained in improved MEM supplemented with 10% FBS (Hyclone; Logan, Utah). […] BCSC markers were analyzed on attached bulk cell populations. […] Samples were sorted on a Becton-Dickinson-FACSAriaII™ or analyzed on Becton-Dickinson-LSRII™ flow cytometer (Chicago, Ill.). Data were evaluated using FlowJo software (FlowJo; Ashland, Oreg.). • DR5 Expression and Functional Caspase Activation. […] Samples were analyzed by flow cytometry for DR5 expression on the ALDH^+/CD44^+/CD24^− subpopulation. […]

2LMP ALDH+ cells [2] = test: Annexin V-propidium iodide apoptosis assay (flow cytometry); type: cell-based, human; conditions: 5 μM MRK003
Method: 2LMP ALDH^+ cells were sorted by flow cytometry and treated with MRK003 GSI (or DMSO) for 24 hours followed by TRA-8 (or media) for an additional 24 hours before measuring ATP levels. […] Similar results were found in studies using CSC-enriched cell populations derived from sphere cultures. The results were confirmed using annexin V-propidium iodide assays and flow cytometry to measure apoptosis.

2LMP ALDH+ cells [3] = test: Ex vivo treatment of sorted BCSC and tumor implantation; type: in vivo, NOD/SCID mice; conditions: cells treated ex vivo with 500 nM Adriamycin for 3 hours, 4×10^4 cells into mammary fat pad; by day 51
Method: (§2) FIGS. 14A and 14B are graphs showing ex vivo treatment of sorted BCSCs inhibited tumorigenesis and progression in NOD/SCID mice. The graphs represent average tumor size (product of two diameters).
as §1, with “Calif.).” for “Calif.). ALDEFLUOR® kit including diethylaminobenzaldehyde (DEAB) negative control was obtained from StemCell Technologies (Durham, N.C.). Cleaved caspase-8 rabbit mAb and cleaved caspase-3 rabbit mAb were purchased from Cell Signaling (Billerica, Mass.). Secondary antibodies, Alexa tluor 405 goat anti-rabbit IgG and Alexa fluor 647 goat anti-mouse IgG1 were purchased from Invitrogen (Carlsbad, Calif.). • Cells and Cell Culture. The 2LMP subclone of the human breast cancer cell line MDA-MB-231 was maintained in improved MEM supplemented with 10% FBS (Hyclone; Logan, Utah).”

SUM159 ALDH+ cells = test: as above; type: in vivo, NOD/SCID mice; conditions: cells treated ex vivo with 500 nM Adriamycin for 3 hours, implanted into mammary fat pad
Method: as §2
as §1, with “Calif.).” for “Calif.). ALDEFLUOR® kit including diethylaminobenzaldehyde (DEAB) negative control was obtained from StemCell Technologies (Durham, N.C.). Cleaved caspase-8 rabbit mAb and cleaved caspase-3 rabbit mAb were purchased from Cell Signaling (Billerica, Mass.). Secondary antibodies, Alexa tluor 405 goat anti-rabbit IgG and Alexa fluor 647 goat anti-mouse IgG1 were purchased from Invitrogen (Carlsbad, Calif.). • Cells and Cell Culture. The 2LMP subclone of the human breast cancer cell line MDA-MB-231 was maintained in improved MEM supplemented with 10% FBS (Hyclone; Logan, Utah).”

Molecule | inhibition of secondary tumorsphere formation (in words) [1] | annexin-V-positive (2LMP ALDH+ cells [2]) [%] | mice that developed tumors (2LMP ALDH+ cells [3]) | mice that developed tumors (SUM159 ALDH+ cells)
CC(=O)O[C@H]1C(=O)[C@@]2(C)[C@H]([C@H](OC(=O)c3ccccc3)[C@]3(O)C[C@H](OC(=O)[C@H](O)[C@@H](NC(=O)c4ccccc4)c4ccccc4)C(C)=C1C3(C)C)[C@]1(OC(C)=O)CO[C@@H]1C[C@@H]2O [Taxol] | did not completely inhibit | – | – | –
O=S1(=O)N[C@@]2(CN1CC(F)(F)F)[C@@H]1CC[C@H]2Cc2ccc(/C=C/CN3CCC(C(F)(F)F)CC3)cc2C1 [MRK003] | – | 36 | – | –
COc1cccc2c1C(=O)c1c(O)c3c(c(O)c1C2=O)C[C@@](O)(C(=O)CO)C[C@@H]3O[C@H]1C[C@H](N)[C@H](O)[C@H](C)O1 [Adriamycin] | did not completely inhibit | – | Five out of five | zero out of five
B1 | only partially inhibitory | – | – | –
